Among the test systems are A498; NCI-H226; MOLT-4; MDA-MB-231; MDA-N; NCI-H460; OVCAR-5; SR; ACHN; HCT-116; MDA-MB-435; SNB-19; MCF7; KM12; LOX IMVI; CCRF-CEM; U-251; SK-MEL-2; SN12C; BT-549.
Common to all, as to assay: NCI tumour cell line growth inhibition, 48 h

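Results reflect a 48-hour exposure of cells in 96-well plates to compound at five concentrations. GI50 marks 50% less growth.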 Activity calls are given as the source filed them. Cut-off read from the data, not from the text of the source: active = GI50 up to about 1.1 µM and inactive = higher. Bounds are passed on as bounds.

As to `CCCC(=O)Nc1cc([N+](=O)[O-])c([N+](=O)[O-])cc1OC`, the GI50 is 15.7 µM (inactive) in the assay with A498; 23.1 µM (inactive) with NCI-H226; > 10 µM (inactive) in the assay with MOLT-4; 19.1 µM (inactive) with MDA-MB-231; 15.1 µM (inactive) in the assay with MDA-N; 13.3 µM (inactive) in the assay with NCI-H460. Further, the GI50 in the assay with OVCAR-5 was 32.5 µM (inactive); in the assay with SR, 5.18 µM (inactive); in the assay on ACHN, 13.5 µM (inactive); in the assay on HCT-116, 17.1 µM (inactive); in the assay with MDA-MB-435, 18.4 µM (inactive); with SNB-19 it was 17 µM (inactive). For the same molecule, the GI50 in the assay with MCF7 is 29.5 µM (inactive); in the assay with KM12, 12.4 µM (inactive); with LOX IMVI, 2.79 µM (inactive); in the assay on CCRF-CEM, 14.1 µM (inactive); in the assay on U-251, 16.3 µM (inactive); with SK-MEL-2, 16.5 µM (inactive). Further, the GI50 was 15.6 µM (inactive) with SN12C and 17.3 µM (inactive) in the assay on BT-549.

For the molecule `Nc1ncc(Cl)c(NCC2(CO)CC(CCc3ccccc3)C2)n1` (stereo not given), the GI50 in the assay on A498 was > 100 µM (inactive); with NCI-H226, > 100 µM (inactive); in the assay on MOLT-4, 1.82 µM (inactive); with MDA-MB-231, > 100 µM (inactive); with MDA-N it was > 100 µM (inactive); in the assay with NCI-H460 it was > 55 µM (inactive). Further, the GI50 in the assay on OVCAR-5 was > 100 µM (inactive); in the assay on SR it was 2.38 µM (inactive); with ACHN, 34 µM (inactive); with HCT-116, 3.7 µM (inactive); in the assay with MDA-MB-435, > 100 µM (inactive); in the assay with SNB-19, > 100 µM (inactive). In addition, the GI50 in the assay with MCF7 was 0.438 µM (active); in the assay with KM12 it was > 100 µM (inactive); with LOX IMVI, 0.785 µM (active); in the assay with CCRF-CEM, > 67.8 µM (inactive); in the assay on U-251, 44.6 µM (inactive); with SK-MEL-2, > 100 µM (inactive). The GI50 in the assay on SN12C and in the assay on BT-549 was > 100 µM (inactive) in each case.

These data come from ChEMBL document CHEMBL1201862, “PubChem BioAssay data set” (2004).
